What was measured:
DGKζ = DGKζ (Homo sapiens (Human), UniProt Q13574); assay: In vitro DGKζ inhibition assay (ADP-Glo); assay type: biochemical; details: His-tagged human recombinant enzyme, 0.4 nM DGK, 30 μM ATP, 20 μM DLG, 90 minute incubation
Method in brief: (§1)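 His-tagged human DGKα (0.1 nM, 50 μM ATP) or DGKζ (0.4 nM, 30 μM ATP), each with 20 μM DLG, in Tris pH 7.5 buffer with CHAPS, Mg2+, Ca2+.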

DGKα = DGKα (Homo sapiens (Human), UniProt P23743); assay: In vitro DGKα inhibition assay (ADP-Glo); assay type: biochemical; details: His-tagged human recombinant enzyme, 0.1 nM DGKα, 50 μM ATP, 20 μM DLG, 90 minute incubation
Sequence of DGKα (P23743 whole entry): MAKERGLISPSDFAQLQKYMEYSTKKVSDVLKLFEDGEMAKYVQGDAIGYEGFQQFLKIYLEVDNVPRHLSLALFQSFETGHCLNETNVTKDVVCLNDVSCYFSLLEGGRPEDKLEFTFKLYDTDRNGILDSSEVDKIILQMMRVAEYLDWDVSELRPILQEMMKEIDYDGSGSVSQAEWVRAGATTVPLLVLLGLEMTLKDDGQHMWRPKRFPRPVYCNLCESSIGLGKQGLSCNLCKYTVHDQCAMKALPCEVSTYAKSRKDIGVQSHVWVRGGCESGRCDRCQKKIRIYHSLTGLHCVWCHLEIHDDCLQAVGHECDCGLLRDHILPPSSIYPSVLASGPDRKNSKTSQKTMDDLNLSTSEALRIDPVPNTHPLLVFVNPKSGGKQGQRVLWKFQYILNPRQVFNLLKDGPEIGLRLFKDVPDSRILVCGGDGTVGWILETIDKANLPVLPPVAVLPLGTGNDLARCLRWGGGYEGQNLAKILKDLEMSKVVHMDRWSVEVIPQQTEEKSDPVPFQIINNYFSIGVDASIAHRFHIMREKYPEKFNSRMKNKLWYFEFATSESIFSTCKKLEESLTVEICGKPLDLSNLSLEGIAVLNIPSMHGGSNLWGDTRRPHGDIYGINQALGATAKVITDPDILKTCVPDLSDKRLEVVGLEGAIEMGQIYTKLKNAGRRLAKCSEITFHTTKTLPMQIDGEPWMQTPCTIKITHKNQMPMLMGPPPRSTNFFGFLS
Method in brief: as §1

Sequence of DGKζ (Q13574 whole entry): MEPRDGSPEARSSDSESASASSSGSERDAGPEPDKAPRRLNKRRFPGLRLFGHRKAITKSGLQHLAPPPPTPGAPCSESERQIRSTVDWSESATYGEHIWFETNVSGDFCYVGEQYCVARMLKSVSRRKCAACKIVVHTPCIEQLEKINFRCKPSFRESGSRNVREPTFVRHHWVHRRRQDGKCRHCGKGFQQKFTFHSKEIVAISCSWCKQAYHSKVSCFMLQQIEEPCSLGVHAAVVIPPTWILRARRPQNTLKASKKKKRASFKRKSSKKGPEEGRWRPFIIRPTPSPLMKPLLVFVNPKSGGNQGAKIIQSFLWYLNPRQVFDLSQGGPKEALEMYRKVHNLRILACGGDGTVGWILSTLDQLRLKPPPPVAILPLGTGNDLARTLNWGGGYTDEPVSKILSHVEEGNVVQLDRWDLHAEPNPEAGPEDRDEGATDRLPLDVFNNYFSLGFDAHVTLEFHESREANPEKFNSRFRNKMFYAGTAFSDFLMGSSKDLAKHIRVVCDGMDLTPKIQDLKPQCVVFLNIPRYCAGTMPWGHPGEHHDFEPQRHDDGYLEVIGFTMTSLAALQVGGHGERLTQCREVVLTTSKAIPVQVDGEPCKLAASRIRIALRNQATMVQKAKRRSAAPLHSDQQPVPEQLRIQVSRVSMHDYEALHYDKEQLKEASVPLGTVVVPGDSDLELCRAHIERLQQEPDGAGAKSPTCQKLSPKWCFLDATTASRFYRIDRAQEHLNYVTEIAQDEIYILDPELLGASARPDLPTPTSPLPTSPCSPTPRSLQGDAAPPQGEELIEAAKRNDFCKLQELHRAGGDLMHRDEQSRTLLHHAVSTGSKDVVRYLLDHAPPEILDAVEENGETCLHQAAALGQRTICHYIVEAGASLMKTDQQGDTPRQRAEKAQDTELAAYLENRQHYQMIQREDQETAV

| SMILES | IC50 (DGKζ) [nM] | IC50 (DGKα) [nM] |
| --- | --- | --- |
| Cc1nc2c(N3C[C@@H](C)N(C(c4ccc(C(F)(F)F)c(F)c4)C4CC(F)(F)C4)C[C@@H]3C)nc3nncn3c2n1C[C@@H]1CCCO1 (single isomer, unassigned) [Example 45] | ≤ 20 | ≤ 20 |
| Cc1nc2c(N3C[C@@H](C)N(C(c4ccc(F)c(Br)c4)C4CC(F)(F)C4)C[C@@H]3C)nc3nncn3c2n1C[C@@H]1CCCO1 (stereo partly drawn) [Example 62, 4-((2S,5R)-4-((3-Bromo-4-fluorophenyl)(3,3-difluorocyclobutyl)methyl)-2,5-dimethylpiperazin-1-yl)-2-methyl-1-(((S)-tetrahydrofuran-2-yl)methyl)-1H-[1,2,4]triazolo[3,4-b]purine] | ≤ 20 | ≤ 20 |
| N#CCC[C@@H]1CN(c2nc3nncn3c3scnc23)CCN1C(c1ccc(F)cc1)c1ccc(F)cc1 [Example 17, (R)-3-(1-(Bis(4-fluorophenyl)methyl)-4-(thiazolo[4,5-e][1,2,4]triazolo[4,3-a]pyrimidin-4-yl)piperazin-2-yl)propanenitrile] | 20 to 200 | ≤ 20 |
| C[C@@H]1CN(c2nc3nncn3c3sc(C(F)F)nc23)[C@@H](C)CN1C(c1ccc(F)cc1)c1ccc(F)cc1 [Example 3, 4-((2S,5R)-4-(Bis(4-fluorophenyl)methyl)-2,5-dimethylpiperazin-1-yl)-2-(difluoromethyl)thiazolo[4,5-e][1,2,4]triazolo[4,3-a]pyrimidine] | 200 to 2000 | ≤ 20 |
| CC(C)[C@H](c1ccc(F)cc1)N1C[C@H](C)N(c2nc3nncn3c3c2ncn3CC2CC2)C[C@H]1C [Example 23, 1-(cyclopropylmethyl)-4-((2S,5R)-4-((R)-1-(4-fluorophenyl)-2-methylpropyl)-2,5-dimethylpiperazin-1-yl)-1H-[1,2,4]triazolo[3,4-b]purine] | ≤ 20 | ≤ 20 |
| [2H]c1nc2c(N3C[C@@H](C)N(C(c4ccc(F)cc4)c4ccc(F)cc4)C[C@@H]3C)nc3nncn3c2n1CCN(C)C [Example 34, 2-(4-((2S,5R)-4-(Bis(4-fluorophenyl)methyl)-2,5-dimethylpiperazin-1-yl)-1H-[1,2,4]triazolo[3,4-b]purin-1-yl-2-d)-N,N-dimethylethan-1-amine] | ≤ 20 | ≤ 20 |
| CC[C@@H]1CN(c2nc3nncn3c3c2ncn3CCN(C)C)[C@@H](C)CN1C(c1ccc(F)cc1)c1ccc(F)cc1 [Example 37, 2-(4-((2S,5R)-4-(Bis(4-fluorophenyl)methyl)-5-ethyl-2-methylpiperazin-1-yl)-1H-[1,2,4]triazolo[3,4-b]purin-1-yl)-N,N-dimethylethan-1-amine] | ≤ 20 | ≤ 20 |
| CCn1ccc2c1c(N1C[C@@H](C)N(C(c3ccc(F)cc3)c3ccc(F)cc3)C[C@@H]1C)nc1nncn12 [Example 10, 5-((2S,5R)-4-(Bis(4-fluorophenyl)methyl)-2,5-dimethylpiperazin-1-yl)-6-ethyl-6H-pyrrolo[2,3-e][1,2,4]triazolo[4,3-a]pyrimidine] | > 2000 | ≤ 20 |
| Cc1cc(C(C2CC(F)(F)C2)N2C[C@H](C)N(c3nc4nncn4c4c3nc(C)n4C[C@@H]3CCCO3)C[C@H]2C)ccc1Cl (stereo partly drawn) [Example 51, 4-((2S,5R)-4-((4-Chloro-3-methylphenyl)(3,3-difluorocyclobutyl)methyl)-2,5-dimethylpiperazin-1-yl)-2-methyl-1-(((S)-tetrahydrofuran-2-yl)methyl)-1H-[1,2,4]triazolo[3,4-b]purine] | ≤ 20 | ≤ 20 |
| C[C@@H]1CN(c2nc3nncn3c3sc(CCC#N)nc23)[C@@H](C)CN1C(c1ccc(F)cc1)c1ccc(F)cc1 [Example 4, 3-(4-((2S,5R)-4-(Bis(4-fluorophenyl)methyl)-2,5-dimethylpiperazin-1-yl)thiazolo[4,5-e][1,2,4]triazolo[4,3-a]pyrimidin-2-yl)propanenitrile] | 200 to 2000 | ≤ 20 |
| CC[C@H]1CN(C(c2ccc(F)cc2)c2ccc(F)cc2)[C@H](CC)CN1c1nc2nncn2c2c1ncn2CCN(C)C [Example 35, 2-(4-((2S,5R)-4-(Bis(4-fluorophenyl)methyl)-2,5-diethylpiperazin-1-yl)-1H-[1,2,4]triazolo[3,4-b]purin-1-yl)-N,N-dimethylethan-1-amine] | ≤ 20 | ≤ 20 |
| CC[C@@H]1CN(c2nc3nncn3c3c2nnn3C[C@H]2CCCO2)[C@@H](C)CN1C(c1ccc(Cl)cc1)c1ccc(Cl)cc1 [Example 40, 4-((2S,5R)-4-(Bis(4-chlorophenyl)methyl)-5-ethyl-2-methylpiperazin-1-yl)-1-(((R)-tetrahydrofuran-2-yl)methyl)-1H-[1,2,3]triazolo[4,5-e][1,2,4]triazolo[4,3-a]pyrimidine] | ≤ 20 | ≤ 20 |

More lines, now with the values ahead:

| IC50 (DGKζ) [nM] | IC50 (DGKα) [nM] | SMILES |
| --- | --- | --- |
| ≤ 20 | ≤ 20 | Cc1nc2c(N3C[C@@H](C)N([C@H](c4ccc(OC(F)(F)F)cc4)C(C)C)C[C@@H]3C)nc3nncn3c2n1C[C@@H]1CCCO1 [Example 118, 4-((2S,5R)-2,5-Dimethyl-4-((S)-2-methyl-1-(4-(trifluoromethoxy)phenyl)propyl)piperazin-1-yl)-2-methyl-1-(((S)-tetrahydrofuran-2-yl)methyl)-1H-[1,2,4]triazolo[3,4-b]purine] |
| ≤ 20 | ≤ 20 | C[C@@H]1CN(c2nc3nncn3c3c2ncn3CCN(C)C)[C@@H](C)CN1[C@H](c1ccc(C(F)(F)F)cc1)c1ccc(C(F)(F)F)cn1 [Example 102, 2-(4-((2S,5R)-2,5-dimethyl-4-((R)-(4-(trifluoromethyl)phenyl)(5-(trifluoromethyl)pyridin-2-yl)methyl)piperazin-1-yl)-1H-[1,2,4]triazolo[3,4-b]purin-1-yl)-N,N-dimethylethan-1-amine] |
| ≤ 20 | ≤ 20 | C[C@@H]1CN(c2nc3nncn3c3c2nnn3C[C@@H]2CCCO2)[C@@H](C)CN1C(c1ccc(Br)cc1)c1ccc(Br)cc1 [Example 111, 4-((2S,5R)-4-(Bis(4-bromophenyl)methyl)-2,5-dimethylpiperazin-1-yl)-1-(((S)-tetrahydrofuran-2-yl)methyl)-1H-[1,2,3]triazolo[4,5-e][1,2,4]triazolo[4,3-a]pyrimidine] |
| ≤ 20 | ≤ 20 | C[C@@H]1CN(c2nc3nncn3c3c2ncn3CCN(C)C)[C@@H](C)CN1C(c1ccc(Cl)cc1)c1ccc(Cl)cc1 [Example 107, 2-(4-((2S,5R)-4-(Bis(4-chlorophenyl)methyl)-2,5-dimethylpiperazin-1-yl)-1H-[1,2,4]triazolo[3,4-b]purin-1-yl)-N,N-dimethylethan-1-amine] |
| ≤ 20 | ≤ 20 | Cc1nc2c(N3C[C@@H](C)N([C@H](c4ccc(Br)cc4)C(C)C)C[C@@H]3C)nc3nncn3c2n1C[C@@H]1CCCO1 [Example 138, 4-((2S,5R)-4-((S)-1-(4-Bromophenyl)-2-methylpropyl)-2,5-dimethylpiperazin-1-yl)-2-methyl-1-(((S)-tetrahydrofuran-2-yl)methyl)-1H-[1,2,4]triazolo[3,4-b]purine] |
| ≤ 20 | ≤ 20 | CC[C@@H]1CN(c2nc3nncn3c3c2ncn3CCN(C)C)[C@@H](C)CN1C(c1ccc(Cl)cc1)C1CC(F)(F)C1 (stereo partly drawn) [Example 66, 2-(4-((2S,5R)-4-((4-Chlorophenyl)(3,3-difluorocyclobutyl)methyl)-5-ethyl-2-methylpiperazin-1-yl)-1H-[1,2,4]triazolo[3,4-b]purin-1-yl)-N,N-dimethylethan-1-amine] |
| ≤ 20 | ≤ 20 | C[C@@H]1CN(c2nc3nncn3c3c2ncn3CCN(C)C)[C@@H](C)CN1C(c1ccc(Cl)cc1)C1CC(F)(F)C1 (single isomer, unassigned) [Example 64] |
| ≤ 20 | ≤ 20 | Cc1nc2c(N3C[C@@H](C)N([C@H](c4ccc(F)c(Cl)c4)C(C)C)C[C@@H]3C)nc3nncn3c2n1C[C@@H]1CCCO1 [Example 86, 4-((2S,5R)-4-((S)-1-(3-Chloro-4-fluorophenyl)-2-methylpropyl)-2,5-dimethylpiperazin-1-yl)-2-methyl-1-(((S)-tetrahydrofuran-2-yl)methyl)-1H-[1,2,4]triazolo[3,4-b]purine] |
| ≤ 20 | ≤ 20 | Cc1nc2c(N3C[C@@H](C)N([C@@H](c4ccc(OC(F)F)cc4F)C(C)C)C[C@@H]3C)nc3nncn3c2n1C[C@@H]1CCCO1 [Example 76, 4-((2S,5R)-4-((R)-1-(4-(difluoromethoxy)-2-fluorophenyl)-2-methylpropyl)-2,5-dimethylpiperazin-1-yl)-2-methyl-1-(((S)-tetrahydrofuran-2-yl)methyl)-1H-[1,2,4]triazolo[3,4-b]purine] |
| ≤ 20 | ≤ 20 | CC[C@@H]1CN(c2nc3nncn3c3c2nnn3C[C@@H]2CCCO2)[C@@H](C)CN1C(c1ccc(F)cc1)C1CC(F)(F)C1 (single isomer, unassigned) [Example 120] |
| ≤ 20 | ≤ 20 | CC[C@@H]1CN(c2nc3nncn3c3c2nnn3C[C@@H]2CCCO2)[C@@H](C)CN1C(c1ccc(Cl)cc1)C1CC(F)(F)C1 (stereo partly drawn) [Example 121, 4-((2S,5R)-4-((4-Chlorophenyl)(3,3-difluorocyclobutyl)methyl)-5-ethyl-2-methylpiperazin-1-yl)-1-(((S)-tetrahydrofuran-2-yl)methyl)-1H-[1,2,3]triazolo[4,5-e][1,2,4]triazolo[4,3-a]pyrimidine] |
| ≤ 20 | ≤ 20 | Cc1nc2c(N3C[C@@H](C)N([C@@H](c4cccc(Cl)c4)C(C)C)C[C@@H]3C)nc3nncn3c2n1C[C@@H]1CCCO1 [Example 97, 4-((2S,5R)-4-((R)-1-(3-chlorophenyl)-2-methylpropyl)-2,5-dimethylpiperazin-1-yl)-2-methyl-1-(((S)-tetrahydrofuran-2-yl)methyl)-1H-[1,2,4]triazolo[3,4-b]purine] |
